Test results from patent EP4371976B1, “IONIZABLE LIPIDS AND LIPID NANOPARTICLES CONTAINING THEREOF” (Certest Biotec, S.L., priority 2022, dated 2024).
Values joined by “and” are separate entries in the source; they are usually repeats but may differ in a detail not shown here. Equal entries are not always repeated.

Experiments:
[1] = RNA encapsulation efficiency of LNPs by Quant-IT Ribogreen; assay type: physicochemical; details: for Encaps. efficiency (%): LNPs with luciferase mRNA, ionizable lipid:non-cationic lipid:sterol:PEG-modified lipid 50:10:38.5:1.5, percentage of RNA entrapped in the LNP
Protocol: The mRNA aqueous solution was then carefully added to the ethanol solution, and the resulted solution was homogenized by pipetting up and down for 4-5 times. The resulting LNPs were immediately diluted 1:1 with Tris buffer and dialyzed overnight against Tris buffer containing 15% sucrose. The resulting LNP solution was then collected, and the encapsulated mRNA was assessed by Quant-IT® Ribogreen (Invitrogen R11490) following the manufacturer's instructions.
(§1) The LNP solution was then adjusted to a final concentration of mRNA of 100 µg/ml. Size distribution, polydispersity and Z-potential were measured by dynamic light scattering (DLS) using Malvern Zetasizer Advance Lab Blue Label. RNA encapsulation was assessed by Quant-IT® Ribogreen following the manufacturer's instructions.

[2] = Apparent pKa of LNPs comprising the ionizable lipid (Table 6); details: standard formulation 50:10:38.5:1.5
[3] = Size distribution, polydispersity and Z-potential of LNPs by dynamic light scattering (Malvern Zetasizer); assay type: physicochemical; details: LNPs, standard formulation 50:10:38.5:1.5; DLS
Protocol: as §1

| Encaps. efficiency (%) [1] | Apparent pKa [2] | P.D.I. [3] | Particle size/ Ø (nm) [3] | Z Potential (± D.E.) [mV] [3] | Encaps. efficiency ([1]; Table 8, LNP 50:10:38.5:1.5, luciferase mRNA) | SMILES |
| --- | --- | --- | --- | --- | --- | --- |
| 65.25% | 6.40 | 0.14 | 138.8 nm | -5.71 mV | – | CCCCCCCCCCC(CCCCCCCC)C(=O)NC(CCSCCC(=O)OCC(CC)CCCC)C(=O)NC1CCN(C)CC1 (stereo not shown) [VC-LC-0559] |
| 59.89% | 6.67 | 0.18 | 151 nm | -5.11 mV | 59.9% and 95.6% | CCCCCCCCC(CCCCCC)COC(=O)CCSCC(CC(=O)NC1CCN(C)CC1)C(=O)OCC(CCCCCC)CCCCCCCC (stereo not shown) [VC-LC-0525] |
| 98.15% | 7.47 | 0.16 | 150.9 nm | 0.83 mV | – | CCCCCCCCC(CCCCCC)C(=O)NC(CCSCCC(=O)OCCCCCCCC(C)C)C(=O)NCC1CCN(C)CC1 (stereo not shown) [VC-LC-0492] |
| 99.88% | 6.74 | – | 168.6 nm | -2.94 mV | – | CCCCCCCC#CCOC(=O)CCSCCC(NC(=O)C(CCCCCC)CCCCCCCC)C(=O)NCC1CCN(C)CC1 (stereo not shown) [VC-LC-0505] |
| 84.48% | 7.00 | 0.23 | 216.2 nm | 1.65 mV | – | CCCCCCCC/C=C\CCCCCCCCOC(=O)CCSCCC(NC(=O)C(CCCCCC)CCCCCCCC)C(=O)NC1CCN(C)CC1 (stereo not shown) [VC-LC-0430] |
| 98.97% | 6.85 | 0.14 | 155.6 nm | 4.06 mV | – | CCCCCCCCCCCCOC(=O)CCSCCC(NC(=O)C(CCCCCCCC)CCCCCCCCCC)C(=O)NCC1CCN(C)CC1 (stereo not shown) [VC-LC-0511] |
| 42.53% | – | 0.11 | 164.8 nm | -24.55 mV | – | CCCCCCCCC(CCCCCC)C(=O)NC(CCSCCC(=O)OCC(CC)CCCC)C(=O)NCCCN1CCOCC1 (stereo not shown) [VC-LC-0166] |
| 23.97% | – | 0.09 | 120 nm | -15.84 mV | – | CCCCCCCCC(CCCCCC)C(=O)NC(CCSCCC(=O)OCCCCCC)C(=O)NCCCN1CCOCC1 (stereo not shown) [VC-LC-0175] |
| 83.35% | – | 0.26 | 179 nm | -20.85 mV | – | CCCCCCCCC(CCCCCC)C(=O)NC(CCSCCC(=O)OCC(CC)CCCC)C(=O)NC1CCN(C)CC1 (stereo not shown) [VC-LC-0212] |

The next lines start with the molecule.

| SMILES | Encaps. efficiency (%) [1] | Apparent pKa [2] | P.D.I. [3] | Particle size/ Ø (nm) [3] | Z Potential (± D.E.) [mV] [3] | Encaps. efficiency ([1]; Table 8, LNP 50:10:38.5:1.5, luciferase mRNA) |
| --- | --- | --- | --- | --- | --- | --- |
| CCCCCCCCCCCCCCCCOC(=O)CCSCCC(NC(=O)C(CCCCCC)CCCCCCCC)C(=O)NCCN1CCN(C)CC1 (stereo not shown) [VC-LC-0185] | 70.97% | 5.85 | – | – | -1.54 mV | – |
| CCCCCCCCCCCCCCOC(=O)CCSCCC(C(=O)NC1CCN(C)CC1)C(=O)OC(CCCCCCCC)CCCCCCCC (stereo not shown) [VC-LC-0444] | 85.85% | 6.28 | 0.07 | 185.7 nm | -3.35 mV | – |
| CCCCCCCCC(CCCCCC)COC(=O)C(CCSCCC(=O)OCCCCCCCC(C)C)C(=O)NCCCN1CCOCC1 (stereo not shown) [VC-LC-0607] | 49.38% | 5.89 | 0.17 | 148.0 nm | -11.81 mV | – |
| CCCCCCCCC(CCCCCCCC)OC(=O)C(CSCCC(=O)OCCCCCC)CC(=O)NCCCn1ccnc1 (stereo not shown) [VC-LC-0306] | 45.62% | 5.70 | 0.09 | 184.2 nm | -12.78 mV | – |
| CCCCCCCCCCCCCCOC(=O)CCSCCC(NC(=O)C(CCCCCCCC)CCCCCCCCCC)C(=O)NCCCN1CCOCC1 (stereo not shown) [VC-LC-0577] | 55.61% | 5.69 | 0.13 | 182.2 nm | -15.06 mV | – |
| CCCCCCCCC(CCCCCC)COC(=O)CCSCCC(C(=O)NCCCN1CCOCC1)C(=O)OCC(CCCCCC)CCCCCCCC (stereo not shown) [VC-LC-0606] | 51.46% | 5.64 | 0.18 | 168.0 nm | -9.73 mV | – |
| CCCCCCCC#CCOC(=O)CCSCC(CC(=O)NC1CCN(C)CC1)C(=O)OCC(CCCCCC)CCCCCCCC (stereo not shown) [VC-LC-0538] | 96.86% | 8.25 | 0.16 | 153.4 nm | 5.13 mV | – |
| CCCCCCCCC(CCCCCC)C(=O)NC(CCSCCC(=O)OCCCCCC(C)C)C(=O)NCCCN1CCOCC1 (stereo not shown) [VC-LC-0171] | 53.65% | – | 0.24 | 228.8 nm | -23.07 mV | – |
| CCCCCCCCCCCCCOC(=O)CCSCCC(NC(=O)C(CCCCCCCC)CCCCCCCCCC)C(=O)NC1CCN(C)CC1 (stereo not shown) [VC-LC-0556] | 54.53% | – | 0.14 | 156.7 nm | -7.57 mV | – |
| CCCCCCCCC(CCCCCC)C(=O)NC(CCSCCC(=O)OCCCCCC(C)C)C(=O)NCCCN(C)C (stereo not shown) [VC-LC-0107] | 100.00% | – | – | – | 0.00 mV | – |
| CCCCCCCCCCCCCCCCCCCCCCOC(=O)CCSCC(CC(=O)NC1CCN(C)CC1)C(=O)OCC(CCCCCC)CCCCCCCC (stereo not shown) [VC-LC-0533] | 98.35% | – | 0.19 | 178.1 nm | 5.74 mV | – |
| CCCCCCCCC(CCCCCC)C(=O)NC(CCSCCC(=O)OCCCCCC(C)C)C(=O)NCCN1CCN(C)CC1 (stereo not shown) [VC-LC-0186] | 86.70% | – | 0.18 | 158.7 nm | 3.38 mV | – |
| CCCCCCCCC(CCCCCCCC)OC(=O)C(CCSCCC(=O)OCCCCCC(C)C)C(=O)NCCCn1ccnc1 (stereo not shown) [VC-LC-0370] | 62.48% | – | 0.21 | 134.7 nm | -7.08 mV | – |
| CCCCCCCCC(CCCCCC)C(=O)NC(CCSCCC(=O)OCCCCCCCC(C)C)C(=O)NC1CCN(C)CC1 (stereo not shown) [VC-LC-0211] | 67.87% | – | 0.14 | 181 nm | -4.59 mV | – |
| CCCCCCCCCCCCOC(=O)CCSCC(CC(=O)NC1CCN(C)CC1)C(=O)OCC(CCCCCC)CCCCCCCC (stereo not shown) [VC-LC-0528] | 98.83% | – | 0.2 | 137.4 nm | 4.55 mV | – |
| CCCCCCCC/C=C\CCCCCCCC(=O)NC(CCSCCC(=O)OCCCCCCCCCCCCCCCC)C(=O)NCCCN(CCO)CCO (stereo not shown) [VC-LC-0290] | 56.36% | – | – | 266.4 nm | -22.79 mV | – |
| CCCCCCCCCCCCOC(=O)CCSCCC(C(=O)NCCCN1CCOCC1)C(=O)OCC(CCCCCC)CCCCCCCC (stereo not shown) [VC-LC-0609] | 54.21% | – | 0.16 | 168.6 nm | -20.42 mV | – |
